According to patent US20130338106A1, “COMPOUNDS INHIBITING LEUCINE-RICH REPEAT KINASE ENZYME ACTIVITY” (priority 2011, published 2013):

Assays:
Type in all cases: biochemical
Conditions in all cases: tested at 10 uM, read-out: percent inhibition of the kinase activity
[1] = target: T1, NTRK2 (Homo sapiens, UniProt Q16620); experiment: ProfilerPro Kinase Selectivity, NTRK2
T1 construct: purchased Caliper LifeSciences
Description: (§1) Kinome selectivity profiling was performed using two example compounds according to the manufacturer's instructions using Caliper LifeSciences' ProfilerPro Kinase Selectivity Assay Kits. Compounds prepared in Examples 1 and 7 were tested at 10 uM and data were recorded using the Caliper LabChip® EZ Reader™. Each compounds' percent inhibition of the kinase activity measured in this manner is reported in the following lists.

[2] = target: T2, CAMK1D (Homo sapiens, UniProt Q8IU85); experiment: ProfilerPro Kinase Selectivity, CAMK1D
T2 construct: purchased Caliper LifeSciences
Description: as §1

[3] = target: T3, P38D (Homo sapiens, UniProt O15264); experiment: ProfilerPro Kinase Selectivity, P38D
T3 construct: purchased Caliper LifeSciences
Description: as §1

[4] = target: T4, BRSK2 (Homo sapiens, UniProt Q8IWQ3); experiment: ProfilerPro Kinase Selectivity, BRSK2
T4 construct: purchased Caliper LifeSciences
T4 sequence (Q8IWQ3 whole entry, species assumed): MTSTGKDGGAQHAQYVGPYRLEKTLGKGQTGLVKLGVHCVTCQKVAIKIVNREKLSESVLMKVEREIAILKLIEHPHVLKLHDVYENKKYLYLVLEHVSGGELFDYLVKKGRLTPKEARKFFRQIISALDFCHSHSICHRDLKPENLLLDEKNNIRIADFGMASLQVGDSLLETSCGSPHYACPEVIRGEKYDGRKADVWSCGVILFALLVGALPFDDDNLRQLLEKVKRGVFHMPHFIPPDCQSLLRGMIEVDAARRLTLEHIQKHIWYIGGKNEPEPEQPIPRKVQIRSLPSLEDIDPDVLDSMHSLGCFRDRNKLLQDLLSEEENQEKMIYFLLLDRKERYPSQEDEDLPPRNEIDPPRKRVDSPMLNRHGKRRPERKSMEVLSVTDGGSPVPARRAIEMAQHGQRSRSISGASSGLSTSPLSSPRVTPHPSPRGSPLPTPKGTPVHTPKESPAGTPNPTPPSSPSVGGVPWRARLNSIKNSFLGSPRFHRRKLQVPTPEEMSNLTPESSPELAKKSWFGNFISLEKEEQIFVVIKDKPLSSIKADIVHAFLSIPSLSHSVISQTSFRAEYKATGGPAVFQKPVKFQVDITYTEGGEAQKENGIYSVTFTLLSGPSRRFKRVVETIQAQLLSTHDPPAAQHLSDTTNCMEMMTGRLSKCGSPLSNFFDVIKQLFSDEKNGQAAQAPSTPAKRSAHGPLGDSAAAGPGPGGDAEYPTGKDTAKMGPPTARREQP
Description: as §1

[5] = target: T5, AMPKA1 (Homo sapiens, UniProt Q13131); experiment: ProfilerPro Kinase Selectivity, AMPKA1
T5 construct: purchased Caliper LifeSciences
Description: as §1

[6] = target: T6, IRAK4 (Homo sapiens, UniProt Q9NWZ3); experiment: ProfilerPro Kinase Selectivity, IRAK4
T6 construct: purchased Caliper LifeSciences
Description: as §1

[7] = target: T7, MET M1250T (Homo sapiens, UniProt P08581, M1250T); experiment: ProfilerPro Kinase Selectivity, MET M1250T
T7 construct: purchased Caliper LifeSciences
Description: as §1

[8] = target: T8, DAPK1 (Homo sapiens, UniProt P53355); experiment: ProfilerPro Kinase Selectivity, DAPK1
T8 construct: purchased Caliper LifeSciences
Description: as §1

[9] = target: T9, PIM1 (Homo sapiens, UniProt P11309); experiment: ProfilerPro Kinase Selectivity, PIM1
T9 construct: purchased Caliper LifeSciences
Description: as §1

[10] = target: T10, P38B2 (Homo sapiens, UniProt Q15759); experiment: ProfilerPro Kinase Selectivity, P38B2
T10 construct: purchased Caliper LifeSciences
T10 sequence (Q15759 whole entry): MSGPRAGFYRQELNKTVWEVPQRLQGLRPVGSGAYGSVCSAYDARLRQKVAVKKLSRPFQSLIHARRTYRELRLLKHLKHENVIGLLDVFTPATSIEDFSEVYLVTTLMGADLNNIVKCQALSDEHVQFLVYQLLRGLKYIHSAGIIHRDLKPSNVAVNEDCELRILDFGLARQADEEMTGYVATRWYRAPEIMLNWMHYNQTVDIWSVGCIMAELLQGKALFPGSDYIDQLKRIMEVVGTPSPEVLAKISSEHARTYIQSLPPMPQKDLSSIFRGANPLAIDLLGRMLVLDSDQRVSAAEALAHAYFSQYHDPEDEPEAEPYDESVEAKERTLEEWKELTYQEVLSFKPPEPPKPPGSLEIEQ
Description: as §1

[11] = target: T11, AURB (Homo sapiens, UniProt Q96GD4); experiment: ProfilerPro Kinase Selectivity, AURB
T11 construct: purchased Caliper LifeSciences
Description: as §1

[12] = target: T12, FLT1 (Homo sapiens, UniProt P17948); experiment: ProfilerPro Kinase Selectivity, FLT1
T12 construct: purchased Caliper LifeSciences
T12 sequence (P17948 27-1338, species assumed): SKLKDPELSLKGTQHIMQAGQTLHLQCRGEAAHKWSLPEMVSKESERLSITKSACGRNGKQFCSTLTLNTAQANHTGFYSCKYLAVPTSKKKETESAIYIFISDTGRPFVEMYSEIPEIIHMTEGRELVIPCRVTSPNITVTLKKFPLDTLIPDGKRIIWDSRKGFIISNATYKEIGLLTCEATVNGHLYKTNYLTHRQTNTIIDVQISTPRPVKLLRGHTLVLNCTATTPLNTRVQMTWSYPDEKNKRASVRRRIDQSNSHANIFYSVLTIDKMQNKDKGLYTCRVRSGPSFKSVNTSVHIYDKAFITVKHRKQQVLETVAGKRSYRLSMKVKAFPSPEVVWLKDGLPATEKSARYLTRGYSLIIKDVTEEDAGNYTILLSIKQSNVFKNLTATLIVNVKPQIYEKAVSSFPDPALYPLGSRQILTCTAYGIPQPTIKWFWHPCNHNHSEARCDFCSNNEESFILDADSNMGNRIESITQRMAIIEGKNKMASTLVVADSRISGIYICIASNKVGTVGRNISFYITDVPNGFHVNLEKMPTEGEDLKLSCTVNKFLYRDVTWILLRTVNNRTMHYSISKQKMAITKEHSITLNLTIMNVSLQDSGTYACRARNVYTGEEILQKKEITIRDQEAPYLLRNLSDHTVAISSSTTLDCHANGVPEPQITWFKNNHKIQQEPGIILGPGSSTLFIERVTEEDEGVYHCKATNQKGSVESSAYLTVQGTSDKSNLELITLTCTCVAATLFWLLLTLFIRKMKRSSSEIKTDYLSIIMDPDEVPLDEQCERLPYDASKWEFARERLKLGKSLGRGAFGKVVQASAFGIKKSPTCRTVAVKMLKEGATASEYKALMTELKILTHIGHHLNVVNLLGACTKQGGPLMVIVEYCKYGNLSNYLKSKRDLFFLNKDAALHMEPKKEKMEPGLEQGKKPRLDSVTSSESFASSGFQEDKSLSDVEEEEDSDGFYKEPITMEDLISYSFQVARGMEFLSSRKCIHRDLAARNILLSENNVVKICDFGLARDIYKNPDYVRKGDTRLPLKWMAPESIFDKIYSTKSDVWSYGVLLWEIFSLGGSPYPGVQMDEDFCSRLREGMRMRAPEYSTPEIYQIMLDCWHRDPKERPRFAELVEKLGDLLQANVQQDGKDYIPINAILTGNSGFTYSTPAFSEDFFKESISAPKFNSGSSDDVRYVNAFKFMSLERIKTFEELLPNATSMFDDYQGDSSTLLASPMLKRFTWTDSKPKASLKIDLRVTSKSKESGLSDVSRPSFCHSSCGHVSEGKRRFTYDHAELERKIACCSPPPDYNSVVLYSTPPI
Description: as §1

[13] = target: T13, ABL1 G250E (Homo sapiens, UniProt P00519, G250E); experiment: ProfilerPro Kinase Selectivity, ABL1 G250E
T13 construct: purchased Caliper LifeSciences
Description: as §1

[14] = target: T14, ABL (Homo sapiens, UniProt P00519); experiment: ProfilerPro Kinase Selectivity, ABL
T14 construct: purchased Caliper LifeSciences
Description: as §1

[15] = target: T15, CAMK2A (Homo sapiens, UniProt Q9UQM7); experiment: ProfilerPro Kinase Selectivity, CAMK2A
T15 construct: purchased Caliper LifeSciences
Description: as §1

[16] = target: T16, PRKCG (Homo sapiens, UniProt P05129); experiment: ProfilerPro Kinase Selectivity, PRKCG
T16 construct: purchased Caliper LifeSciences
Description: as §1

[17] = target: T17, DCAMKL1 (Homo sapiens, UniProt O15075); experiment: ProfilerPro Kinase Selectivity, DCAMKL1
T17 construct: purchased Caliper LifeSciences
Description: as §1

[18] = target: T18, GSK3B (Homo sapiens, UniProt P49841); experiment: ProfilerPro Kinase Selectivity, GSK3B
T18 construct: purchased Caliper LifeSciences
T18 sequence (P49841 whole entry, species assumed): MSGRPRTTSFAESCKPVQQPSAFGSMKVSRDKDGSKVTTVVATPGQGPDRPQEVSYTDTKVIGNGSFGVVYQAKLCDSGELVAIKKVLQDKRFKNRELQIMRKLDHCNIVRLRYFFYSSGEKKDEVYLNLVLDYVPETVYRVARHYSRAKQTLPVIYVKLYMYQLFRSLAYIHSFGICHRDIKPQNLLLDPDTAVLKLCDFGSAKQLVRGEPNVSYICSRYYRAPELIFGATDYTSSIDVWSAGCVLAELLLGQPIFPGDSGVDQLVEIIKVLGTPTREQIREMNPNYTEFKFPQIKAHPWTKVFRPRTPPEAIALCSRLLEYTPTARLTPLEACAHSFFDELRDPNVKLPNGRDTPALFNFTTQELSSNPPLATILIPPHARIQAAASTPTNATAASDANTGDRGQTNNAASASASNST
Description: as §1

[19] = target: T19, FMS (Homo sapiens, UniProt P07333); experiment: ProfilerPro Kinase Selectivity, FMS
T19 construct: purchased Caliper LifeSciences
Description: as §1

[20] = target: T20, EPHA3 (Homo sapiens, UniProt P29320); experiment: ProfilerPro Kinase Selectivity, EPHA3
T20 construct: purchased Caliper LifeSciences
Description: as §1

[21] = target: T21, TSSK1 (Homo sapiens, UniProt Q9BXA7); experiment: ProfilerPro Kinase Selectivity, TSSK1
T21 construct: purchased Caliper LifeSciences
Description: as §1

[22] = target: T22, IKKB (Homo sapiens, UniProt O14920); experiment: ProfilerPro Kinase Selectivity, IKKB
T22 construct: purchased Caliper LifeSciences
Description: as §1

[23] = target: T23, PKD3 (Homo sapiens, UniProt O94806); experiment: ProfilerPro Kinase Selectivity, PKD3
T23 construct: purchased Caliper LifeSciences
Description: as §1

[24] = target: T24, FGFR1 V561M (Homo sapiens, UniProt P11362, V561M); experiment: ProfilerPro Kinase Selectivity, FGFR1 V561M
T24 construct: purchased Caliper LifeSciences
Description: as §1

[25] = target: T25, PDGFR A(550) (Homo sapiens, UniProt P16234); experiment: ProfilerPro Kinase Selectivity, PDGFR A(550)
T25 construct: purchased Caliper LifeSciences
Description: as §1

[26] = target: T26, CK1E (Homo sapiens, UniProt P49674); experiment: ProfilerPro Kinase Selectivity, CK1E
T26 construct: purchased Caliper LifeSciences
Description: as §1

[27] = target: T27, CHK1 (Homo sapiens, UniProt O14757); experiment: ProfilerPro Kinase Selectivity, CHK1
T27 construct: purchased Caliper LifeSciences
Description: as §1

[28] = target: T28, FGR (Homo sapiens, UniProt P09769); experiment: ProfilerPro Kinase Selectivity, FGR
T28 construct: purchased Caliper LifeSciences
Description: as §1

[29] = target: T29, ROCK1 (Homo sapiens, UniProt Q13464); experiment: ProfilerPro Kinase Selectivity, ROCK1
T29 construct: purchased Caliper LifeSciences
Description: as §1

[30] = target: T30, PDGFRB (Homo sapiens, UniProt P09619); experiment: ProfilerPro Kinase Selectivity, PDGFRB
T30 construct: purchased Caliper LifeSciences
Description: as §1

[31] = target: T31, AURC (Homo sapiens, UniProt Q9UQB9); experiment: ProfilerPro Kinase Selectivity, AURC
T31 construct: purchased Caliper LifeSciences
Description: as §1

[32] = target: T32, ABL Q252H (Homo sapiens, UniProt P00519, Q252H); experiment: ProfilerPro Kinase Selectivity, ABL Q252H
T32 construct: purchased Caliper LifeSciences
Description: as §1

[33] = target: T33, ROS (Homo sapiens, UniProt P08922); experiment: ProfilerPro Kinase Selectivity, ROS
T33 construct: purchased Caliper LifeSciences
Description: as §1

[34] = target: T34, ERK2 (Homo sapiens, UniProt P28482); experiment: ProfilerPro Kinase Selectivity, ERK2
T34 construct: purchased Caliper LifeSciences
Description: as §1

[35] = target: T35, HIPK2 (Homo sapiens, UniProt Q9H2X6); experiment: ProfilerPro Kinase Selectivity, HIPK2
T35 construct: purchased Caliper LifeSciences
Description: as §1

[36] = target: T36, PAK5 (Homo sapiens, UniProt Q9P286); experiment: ProfilerPro Kinase Selectivity, PAK5
T36 construct: purchased Caliper LifeSciences
T36 sequence (Q9P286 whole entry): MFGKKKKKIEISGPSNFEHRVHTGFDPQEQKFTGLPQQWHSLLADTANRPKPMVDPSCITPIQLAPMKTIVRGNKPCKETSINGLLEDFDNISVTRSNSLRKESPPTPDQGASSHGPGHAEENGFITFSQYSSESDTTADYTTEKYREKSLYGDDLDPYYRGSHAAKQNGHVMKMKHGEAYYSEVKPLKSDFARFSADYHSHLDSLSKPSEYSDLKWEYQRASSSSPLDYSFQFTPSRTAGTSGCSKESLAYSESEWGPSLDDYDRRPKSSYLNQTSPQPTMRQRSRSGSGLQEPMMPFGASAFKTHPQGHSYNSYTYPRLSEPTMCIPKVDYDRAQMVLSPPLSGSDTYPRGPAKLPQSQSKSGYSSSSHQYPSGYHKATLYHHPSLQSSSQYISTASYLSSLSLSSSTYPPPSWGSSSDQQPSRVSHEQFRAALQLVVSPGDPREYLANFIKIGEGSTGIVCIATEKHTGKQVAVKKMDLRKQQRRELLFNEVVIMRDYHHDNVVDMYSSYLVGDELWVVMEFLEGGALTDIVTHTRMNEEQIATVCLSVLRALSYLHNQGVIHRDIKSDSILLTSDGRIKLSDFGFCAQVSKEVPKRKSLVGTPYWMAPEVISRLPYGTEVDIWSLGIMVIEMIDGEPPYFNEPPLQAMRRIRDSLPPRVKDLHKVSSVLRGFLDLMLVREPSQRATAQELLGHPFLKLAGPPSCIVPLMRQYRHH
Description: as §1

[37] = target: T37, RSK4 (Homo sapiens, UniProt Q9UK32); experiment: ProfilerPro Kinase Selectivity, RSK4
T37 construct: purchased Caliper LifeSciences
T37 sequence (Q9UK32 whole entry, species assumed): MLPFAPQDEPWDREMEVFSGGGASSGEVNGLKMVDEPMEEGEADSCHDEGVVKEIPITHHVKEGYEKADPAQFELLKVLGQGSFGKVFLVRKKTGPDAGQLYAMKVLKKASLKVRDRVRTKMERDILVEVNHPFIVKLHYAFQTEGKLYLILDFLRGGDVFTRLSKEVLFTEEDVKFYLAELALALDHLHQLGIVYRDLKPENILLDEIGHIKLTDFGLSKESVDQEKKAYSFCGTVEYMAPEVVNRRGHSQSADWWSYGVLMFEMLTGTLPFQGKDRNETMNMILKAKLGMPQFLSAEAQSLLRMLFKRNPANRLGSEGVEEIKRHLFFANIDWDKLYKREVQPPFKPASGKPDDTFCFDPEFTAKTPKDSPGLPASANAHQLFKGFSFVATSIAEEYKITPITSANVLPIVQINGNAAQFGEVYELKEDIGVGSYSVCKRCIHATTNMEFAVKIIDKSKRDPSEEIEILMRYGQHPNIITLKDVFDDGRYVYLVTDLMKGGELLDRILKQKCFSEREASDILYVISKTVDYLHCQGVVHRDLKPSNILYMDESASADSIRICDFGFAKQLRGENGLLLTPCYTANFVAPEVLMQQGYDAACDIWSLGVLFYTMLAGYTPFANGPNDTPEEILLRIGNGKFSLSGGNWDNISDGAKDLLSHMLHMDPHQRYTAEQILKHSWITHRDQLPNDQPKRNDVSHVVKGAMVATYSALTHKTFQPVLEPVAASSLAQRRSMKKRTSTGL
Description: as §1

[38] = target: T38, PIM-3 (Homo sapiens, UniProt Q86V86); experiment: ProfilerPro Kinase Selectivity, PIM-3
T38 construct: purchased Caliper LifeSciences
Description: as §1

Row | SMILES | inhibition at 10 µM [1] [%] | inhibition at 10 µM [2] [%] | inhibition at 10 µM [3] [%] | inhibition at 10 µM [4] [%] | inhibition at 10 µM [5] [%] | inhibition at 10 µM [6] [%] | inhibition at 10 µM [7] [%] | inhibition at 10 µM [8] [%] | inhibition at 10 µM [9] [%] | inhibition at 10 µM [10] [%] | inhibition at 10 µM [11] [%] | inhibition at 10 µM [12] [%] | inhibition at 10 µM [13] [%] | inhibition at 10 µM [14] [%] | inhibition at 10 µM [15] [%] | inhibition at 10 µM [16] [%] | inhibition at 10 µM [17] [%] | inhibition at 10 µM [18] [%] | inhibition at 10 µM [19] [%] | inhibition at 10 µM [20] [%] | also measured
1 | CSc1sc(-c2cc[nH]n2)c2c1C(=O)CCC2 [Example 1, 3-(Methylsulfanyl)-1-(1H-pyrazol-3-yl)-6,7-dihydro-2-benzothiophen-4(5H)-one] | 16.9 | -3.1 | 4.2 | -1.7 | 16.4 | 31.1 | 5.1 | 7.2 | 26.3 | -1.3 | 57.7 | 1.2 | 5 | 12.7 | -4.8 | 10 | -2.5 | 5.4 | -36.1 | -2.2 | inhibition at 10 µM [21]: 24%; inhibition at 10 µM [22]: 9.3%; inhibition at 10 µM [23]: 12%; inhibition at 10 µM [24]: 4.4%; inhibition at 10 µM [25]: 1.5%; inhibition at 10 µM [26]: 10.9%; inhibition at 10 µM [27]: 0%; inhibition at 10 µM [28]: -7.2%; inhibition at 10 µM [29]: -3.1%; inhibition at 10 µM [30]: 22.1%; inhibition at 10 µM [31]: 27.9%; inhibition at 10 µM [32]: 16.9%; inhibition at 10 µM [33]: 33.7%; inhibition at 10 µM [34]: 4.5%; inhibition at 10 µM [35]: 25.2%; inhibition at 10 µM [36]: -0.6%; inhibition at 10 µM [37]: 2.9%; inhibition at 10 µM [38]: 23.7%
2 | CC1(C)CC(=O)c2c(SC3CCCC3)sc(-c3cc[nH]n3)c2C1 [Example 7, 3-(Cyclopentylsulfanyl)-6,6-dimethyl-1-(1H-pyrazol-3-yl)-6,7-dihydro-2-benzothiophen-4(5H)-one] | 7 | 4 | -0.3 | -11.1 | -0.5 | 3.7 | -0.3 | -2 | -16.3 | -0.7 | -3.1 | 11.8 | 6.4 | 1.9 | 1.7 | 2.3 | -2.1 | 0.5 | -6.5 | -2.9 | inhibition at 10 µM [21]: 8.3%; inhibition at 10 µM [22]: 0.5%; inhibition at 10 µM [23]: 2.6%; inhibition at 10 µM [24]: 7.9%; inhibition at 10 µM [25]: -13.8%; inhibition at 10 µM [26]: 5.1%; inhibition at 10 µM [27]: 8%; inhibition at 10 µM [28]: -1.6%; inhibition at 10 µM [29]: 5.1%; inhibition at 10 µM [30]: -1.4%; inhibition at 10 µM [31]: 3.5%; inhibition at 10 µM [32]: 3.9%; inhibition at 10 µM [33]: 42.7%; inhibition at 10 µM [34]: -0.9%; inhibition at 10 µM [35]: 5%; inhibition at 10 µM [36]: -4.4%; inhibition at 10 µM [37]: -5.6%; inhibition at 10 µM [38]: 8.2%
